Assay results taken from patent publication US10183938B2, “Geminal substituted quinuclidine amide compounds as agonists of α-7 nicotonic acetylcholine receptors” (AXOVANT SCIENCES GMBH, priority 2014, dated 2019).
Structures can show the parent of a compound that is named as a salt. Where two headings read alike, the source gives them in different places.

How the values were obtained:
[1] = molecular target: human 5-HT3 serotonin receptors (Homo sapiens (Human), UniProt P46098); assay: [3H]BRL 43694 competition binding
Sequence of human 5-HT3 serotonin receptors (P46098 24-478): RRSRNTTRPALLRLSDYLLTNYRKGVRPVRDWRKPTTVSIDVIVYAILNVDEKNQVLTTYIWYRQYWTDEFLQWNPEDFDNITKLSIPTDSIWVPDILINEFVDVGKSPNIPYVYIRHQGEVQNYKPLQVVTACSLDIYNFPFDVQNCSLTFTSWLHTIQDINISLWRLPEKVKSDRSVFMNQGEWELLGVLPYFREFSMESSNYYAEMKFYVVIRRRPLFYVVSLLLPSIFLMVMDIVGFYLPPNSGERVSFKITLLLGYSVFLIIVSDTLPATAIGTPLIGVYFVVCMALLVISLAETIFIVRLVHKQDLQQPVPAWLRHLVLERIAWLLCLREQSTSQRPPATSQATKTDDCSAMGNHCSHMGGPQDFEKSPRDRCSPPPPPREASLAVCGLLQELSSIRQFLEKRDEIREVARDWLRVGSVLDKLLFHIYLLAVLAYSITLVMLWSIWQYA

[2] = molecular target: human α7 nAChRs transiently expressed in Xenopus laevis oocytes (Homo sapiens (Human), UniProt P36544); assay: Oocyte electrophysiology screen (TEVC); type: cell-based; settings: 0.01 mM test compound, peak current relative to 0.2 mM ACh
Sequence of human α7 nAChRs transiently expressed in Xenopus laevis oocytes (P36544 23-502 limits assumed): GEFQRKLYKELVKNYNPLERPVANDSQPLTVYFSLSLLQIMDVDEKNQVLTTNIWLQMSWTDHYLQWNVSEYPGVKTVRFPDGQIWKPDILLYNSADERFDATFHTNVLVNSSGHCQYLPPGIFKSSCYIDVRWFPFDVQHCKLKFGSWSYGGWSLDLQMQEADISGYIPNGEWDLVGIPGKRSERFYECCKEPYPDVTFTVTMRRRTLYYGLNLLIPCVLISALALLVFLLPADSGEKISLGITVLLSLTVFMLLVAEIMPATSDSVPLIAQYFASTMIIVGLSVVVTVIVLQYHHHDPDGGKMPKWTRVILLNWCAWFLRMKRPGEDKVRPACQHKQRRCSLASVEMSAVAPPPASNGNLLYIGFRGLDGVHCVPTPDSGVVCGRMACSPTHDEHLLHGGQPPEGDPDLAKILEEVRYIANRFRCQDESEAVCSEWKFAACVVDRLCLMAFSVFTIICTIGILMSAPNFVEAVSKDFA
Summary of the method: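 Oocytes expressing human α7 were clamped at −80 mV by TEVC. After a 0.2 mM ACh control pulse, test compound was applied at 0.01 mM for 30 s. Agonist response is peak current as % of the ACh response, in triplicate.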

[3] = CHO cell membranes, [3H]BRL 43694, Cheng Prusoff, read-out: h-5HT3 Ki

SMILES | Ki [1] [nM] | % ACh @ 10 μM Oocyte [2] [% ACh] | Ki [1, 3] [nM]
O=C(NC1C2CCN(CC2)C12CC2)c1cc2cccc(Cl)c2s1 (single isomer, unassigned; enantiomer1) [56a, 7-chloro-N-(1′-azaspiro[cyclopropane-1,2′-bicyclo[2.2.2]octan]-3′-yl)benzo[b]thiophene-2-carboxamide-enantiomer1] | 48 | 1231 | –
O=C(NC1C2CCN(CC2)C12CC2)c1ccc2ccsc2c1 (single isomer, unassigned; enantiomer1) [58a, N-(1′-azaspiro[cyclopropane-1,2′-bicyclo[2.2.2]octan]-3′-yl)benzo[b]thiophene-6-carboxamide-enantiomer1] | – | 235 | 910
O=C(NC1C2CCN(CC2)C12CC2)c1ccc2occc2c1 (single isomer, unassigned; enantiomer1) [59a, N-(1′-azaspiro[cyclopropane-1,2′-bicyclo[2.2.2]octan]-3′-yl)benzofuran-5-carboxamide-enantiomer1] | 6500 | 823 | –
O=C(NC1C2CCN(CC2)C12CC2)c1cc2cccc(C(F)(F)F)c2s1 (single isomer, unassigned; enantiomer1) [60a, N-(1′-azaspiro[cyclopropane-1,2′-bicyclo[2.2.2]octan]-3′-yl)-7-(trifluoromethyl)benzo[b]thiophene-2-carboxamide-enantiomer1] | – | 501 | 1010
O=C(NC1C2CCN(CC2)C12CC2)c1cc2ccc(F)cc2s1 (single isomer, unassigned; enantiomer1) [61a, 6-fluoro-N-(1′-azaspiro[cyclopropane-1,2′-bicyclo[2.2.2]octan]-3′-yl)benzo[b]thiophene-2-carboxamide-enantiomer1] | – | 1493 | 1500
O=C(NC1C2CCN(CC2)C12CC2)c1cc2cc(F)ccc2s1 (single isomer, unassigned; enantiomer1) [64a, 5-fluoro-N-(1′-azaspiro[cyclopropane-1,2′-bicyclo[2.2.2]octan]-3′-yl)benzo[b]thiophene-2-carboxamide-enantiomer1] | 420 | 511 | –
CC1(C)[C@H](NC(=O)c2cc3cccc(Cl)c3s2)C2CCN1CC2 [(R)-3, (R)-7-chloro-N-(2,2-dimethylquinuclidin-3-yl)benzo[b]thiophene-2-carboxamide hydrochloride] | – | 304 | 270
CC1(C)[C@H](NC(=O)c2cc3cccc(F)c3s2)C2CCN1CC2 [(R)-4, (R)—N-(2,2-dimethylquinuclidin-3-yl)-7-fluoro-benzo[b]thiophene-2-carboxamide hydrochloride] | – | 1060 | 870
CC1(C)[C@H](NC(=O)c2ccc3ccsc3c2)C2CCN1CC2 [(R)-5, (R)—N-(2,2-dimethylquinuclidin-3-yl)benzo[b]thiophene-6-carboxamide hydrochloride] | – | 282 | 1900
CC1(C)[C@H](NC(=O)c2ccc3occc3c2)C2CCN1CC2 [(R)-6, (R)—N-(2,2-dimethylquinuclidin-3-yl)benzofuran-5-carboxamide hydrochloride] | – | 374 | > 10000
CC1(C)[C@H](NC(=O)c2cc3cccc(C(F)(F)F)c3s2)C2CCN1CC2 [(R)-7, (R)—N-(2,2-dimethylquinuclidin-3-yl)-7-(trifluoromethyl)benzo[b]thiophene-2-carboxamide hydrochloride] | – | 466 | 3400
CC1(C)[C@H](NC(=O)c2cc3ccc(F)cc3s2)C2CCN1CC2 [(R)-8, (R)—N-(2,2-dimethylquinuclidin-3-yl)-6-fluorobenzo[b]thiophene-2-carboxamide hydrochloride] | – | 480 | 6500
CC1(C)[C@H](NC(=O)c2cc3ccc(C#N)cc3s2)C2CCN1CC2 [(R)-9, (R)-6-cyano-N-(2,2-dimethylquinuclidin-3-yl)benzo[b]thiophene-2-carboxamide hydrochloride] | – | 2 | > 10000
CC1(C)[C@H](NC(=O)c2cc3ccc(C(F)(F)F)cc3s2)C2CCN1CC2 [(R)-10, (R)—N-(2,2-dimethylquinuclidin-3-yl)-6-(trifluoromethyl)benzo[b]thiophene-2-carboxamide hydrochloride] | – | 1 | > 10000
CC1(C)[C@H](NC(=O)c2cc3cc(F)ccc3s2)C2CCN1CC2 [(R)-11, (R)—N-(2,2-dimethylquinuclidin-3-yl)-5-fluorobenzo[b]thiophene-2-carboxamide hydrochloride] | – | 552 | 1700
CC1(C)[C@H](NC(=O)c2cc3cc(Cl)ccc3s2)C2CCN1CC2 [(R)-13, (R)-5-chloro-N-(2,2-dimethylquinuclidin-3-yl)benzo[b]thiophene-2-carboxamide hydrochloride] | – | 132 | 2100

SMILES | Ki [1] [nM] | % ACh @ 10 μM Oocyte [2] [% ACh] | Ki [1, 3] [nM]
CC1(C)[C@H](NC(=O)c2cc3cc(Cl)c(Cl)cc3s2)C2CCN1CC2 [(R)-14, (R)-5,6-dichloro-N-(2,2-dimethylquinuclidin-3-yl)benzo[b]thiophene-2-carboxamide hydrochloride] | – | 3 | > 10000
Cc1ccc2cc(C(=O)N[C@@H]3C4CCN(CC4)C3(C)C)sc2c1 [(R)-15, (R)—N-(2,2-dimethylquinuclidin-3-yl)-6-methylbenzo[b]thiophene-2-carboxamide hydrochloride] | – | 539 | > 10000
Cc1ccc2sc(C(=O)N[C@@H]3C4CCN(CC4)C3(C)C)cc2c1 [(R)-16, (R)—N-(2,2-dimethylquinuclidin-3-yl)-5-methylbenzo[b]thiophene-2-carboxamide hydrochloride] | – | 74 | 2500
CC1(C)[C@H](NC(=O)c2cc3cc(C(F)(F)F)ccc3s2)C2CCN1CC2 [(R)-17, (R)—N-(2,2-dimethylquinuclidin-3-yl)-5-(trifluoromethyl)benzo[b]thiophene-2-carboxamide hydrochloride] | – | 0 | > 10000
CC1(C)[C@H](NC(=O)c2cc3ccc(C4CC4)cc3s2)C2CCN1CC2 [(R)-18, (R)-6-cyclopropyl-N-(2,2-dimethylquinuclidin-3-yl)benzo[b]thiophene-2-carboxamide hydrochloride] | – | 422 | > 10000
CC1(C)[C@H](NC(=O)c2cc3cc(C4CC4)ccc3s2)C2CCN1CC2 [(R)-19, (R)-5-cyclopropyl-N-(2,2-dimethylquinuclidin-3-yl)benzo[b]thiophene-2-carboxamide hydrochloride] | – | 149 | 1600
COc1ccc2cc(C(=O)N[C@@H]3C4CCN(CC4)C3(C)C)sc2c1 [(R)-20, (R)—N-(2,2-dimethylquinuclidin-3-yl)-6-methoxybenzo[b]thiophene-2-carboxamide hydrochloride] | – | 558 | > 10000
CC1(C)[C@H](NC(=O)c2cc3ccoc3cn2)C2CCN1CC2 [(R)-22, (R)—N-(2,2-dimethylquinuclidin-3-yl)furo[2,3-c]pyridine-5-carboxamide hydrochloride] | – | 456 | 6500
COc1c(F)ccc2cc(C(=O)N[C@@H]3C4CCN(CC4)C34CC4)sc12 [(R)-197, (R)-6-fluoro-7-methoxy-N-(1′-azaspiro[cyclopropane-1,2′-bicyclo[2.2.2]octan]-3′-yl)benzo[b]thiophene-2-carboxamide hydrochloride] | – | – | 2800
Cc1ccc2cc(C(=O)N[C@@H]3C4CCN(CC4)C34CC4)sc2c1C#N [(R)-198, (R)-7-cyano-6-methyl-N-(1′-azaspiro[cyclopropane-1,2′-bicyclo[2.2.2]octan]-3′-yl)benzo[b]thiophene-2-carboxamide hydrochloride] | – | – | > 10000
COCc1cccc2cc(C(=O)N[C@@H]3C4CCN(CC4)C34CC4)sc12 [(R)-199, (R)-7-(methoxymethyl)-N-(1′-azaspiro[cyclopropane-1,2′-bicyclo[2.2.2]octan]-3′-yl)benzo[b]thiophene-2-carboxamide hydrochloride] | – | – | 580
O=C(N[C@@H]1C2CCN(CC2)C12CC2)c1cc2ccc3c(c2s1)OCCC3 [(R)-201, (R)—N-(1′-azaspiro[cyclopropane-1,2′-bicyclo[2.2.2]octan]-3′-yl)-3,4-dihydro-2H-thieno[3,2-h]chromene-8-carboxamide hydrochloride] | – | – | 3600
O=C(N[C@@H]1C2CCN(CC2)C12CC2)c1ccc2cc(Cl)sc2c1 [(R)-203, (R)-2-chloro-N-(1′-azaspiro[cyclopropane-1,2′-bicyclo[2.2.2]octan]-3′-yl)benzo[b]thiophene-6-carboxamide hydrochloride] | – | – | 2300
O=C(N[C@@H]1C2CCN(CC2)C12CC2)c1cc2ccc3c(c2s1)CCCO3 [(R)-204, (R)—N-(1′-azaspiro[cyclopropane-1,2′-bicyclo[2.2.2]octan]-3′-yl)-8,9-dihydro-7H-thieno[2,3-f]chromene-2-carboxamide hydrochloride] | – | – | > 10000
Cc1c(Cl)ccc2cc(C(=O)N[C@@H]3C4CCN(CC4)C34CC4)sc12 [(R)-205, (R)-6-chloro-7-methyl-N-(1′-azaspiro[cyclopropane-1,2′-bicyclo[2.2.2]octan]-3′-yl)benzo[b]thiophene-2-carboxamide hydrochloride] | – | – | 2600
COc1c(C2CC2)ccc2cc(C(=O)N[C@@H]3C4CCN(CC4)C34CC4)sc12 [(R)-262, (R)-6-cyclopropyl-7-methoxy-N-(1′-azaspiro[cyclopropane-1,2′-bicyclo[2.2.2]octan]-3′-yl)benzo[b]thiophene-2-carboxamide hydrochloride] | – | – | > 10000
